# In patent US8871756B2 (Hoffmann-La Roche Inc., priority 2011, dated 2014):
# System: RSV Long strain
# Assay: Viral cytopathic effect (CPE) assay, anti-RSV activity
# Assay type: cell-based, Respiratory Syncytial Virus
# Details: human respiratory syncytial virus, 144 h, RSV Long strain (ATCC); cell viability after 6 days, Cell Counting kit-8
# Outline: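 EC50 was derived from CCK-8 viability at 450/630 nm measured 6 days post-infection. Infection used enough RSV Long strain for approximately 80–90% cytopathic effect, in the presence of half-log serially diluted compound. Cells were plated the day before at 6×10^3 per well in DMEM/10% FBS.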
row,Compound,EC50
1,"Cc1ccc2nc(N3CCS(=O)(=O)c4ccccc4C3)cc(NCCCCN)c2c1 [Example 9-19, N-[2-(1,1-Dioxido-2,3-dihydro-1,4-benzothiazepin-4(5 H)-yl)-6-methylquinolin-4-yl]butane-1,4-diamine]",0.0007 µM
2,"NCCNc1cc(N2CCS(=O)(=O)c3ccccc3C2)nc2ccc([N+](=O)[O-])cc12 [Example 9-20, N-[2-(1,1-Dioxido-2,3-dihydro-1,4-benzothiazepin-4(5H)-yl)-6-nitroquinolin-4-yl]ethane-1,2-diamine]",0.76 µM
3,"Cc1ccc2nc(N3CCS(=O)(=O)c4ccccc4C3)cc(NCCN)c2c1F [Example 9-21, N-[2-(1,1-Dioxido-2,3-dihydro-1,4-benzothiazepin-4(5H)-yl)-5-fluoro-6-methylquinolin-4-yl]ethane-1,2-diamine]",0.021 µM
4,"Cc1ccc2nc(N3CCS(=O)(=O)c4ccccc4C3)cc(NCCO)c2c1F [Example 9-22, 2-{[2-(1,1-Dioxido-2,3-dihydro-1,4-benzothiazepin-4(5H)-yl)-5-fluoro-6-methylquinolin-4-yl]amino}ethanol]",0.872 µM
5,"Cc1cc2c(NCCO)cc(N3CCS(=O)(=O)c4ccccc4C3)nc2cc1F [Example 9-23, 2-{[2-(1,1-Dioxido-2,3-dihydro-1,4-benzothiazepin-4(5H)-yl)-7-fluoro-6-methylquinolin-4-yl]amino}ethanol]",3.02 µM
6,"Cc1cc2c(NCCN)cc(N3CCS(=O)(=O)c4ccccc4C3)nc2cc1F [Example 9-24, N-[2-(1,1-Dioxido-2,3-dihydro-1,4-benzothiazepin-4(5H)-yl)-7-fluoro-6-methylquinolin-4-yl]ethane-1,2-diamine]",0.024 µM
7,"Cc1cc2c(NCCN)cc(N3CCS(=O)(=O)c4ccccc4C3)nc2c(F)c1F [Example 9-25, N-[2-(1,1-Dioxido-2,3-dihydro-1,4-benzothiazepin-4(5H)-yl)-7,8-difluoro-6-methylquinolin-4-yl]ethane-1,2-diamine]",4.08 µM
8,"COCCNc1cc(N2CCS(=O)(=O)c3ccccc3C2)nc2ccc(C)cc12 [Example 9-26, 2-(1,1-Dioxido-2,3-dihydro-1,4-benzothiazepin-4(5H)-yl)-N-(2-methoxyethyl)-6-methylquinolin-4-amine]",7.2 µM
9,"Cc1ccc2nc(N3CCS(=O)(=O)c4ccccc4C3)cc(N3CCC(N)CC3)c2c1 [Example 9-27, 1-[2-(1,1-Dioxido-2,3-dihydro-1,4-benzothiazepin-4(5H)-yl)-6-methylquinolin-4-yl]piperidin-4-amine]",0.797 µM
10,"NC1CCN(c2cc(N3CCS(=O)(=O)c4ccccc4C3)nc3ccncc23)C1 (centres unmarked) [Example 9-28, 1-[2-(1,1-Dioxido-2,3-dihydro-1,4-benzothiazepin-4(5H)-yl)-1,6-naphthyridin-4-yl]pyrrolidin-3-amine]",0.003 µM
11,"NCCCNc1cc(N2CCS(=O)(=O)c3ccccc3C2)nc2ccc(C(F)F)cc12 [Example 9-29, N-[6-(Difluoromethyl)-2-(1,1-dioxido-2,3-dihydro-1,4-benzothiazepin-4(5H)-yl)quinolin-4-yl]propane-1,3-diamine]",0.024 µM
12,"CCNc1cc(N2CCS(=O)(=O)c3ccccc3C2)nc2ccc(Cl)cc12 [Example 9-30, 6-Chloro-2-(1,1-dioxido-2,3-dihydro-1,4-benzothiazepin-4(5H)-yl)-N-ethylquinolin-4-amine]",8.59 µM
13,"O=S1(=O)CCN(c2cc(NCCO)c3cc(Cl)ccc3n2)Cc2ccccc21 [Example 9-31, 2-{[6-Chloro-2-(1,1-dioxido-2,3-dihydro-1,4-benzothiazepin-4(5H)-yl)quinolin-4-yl]amino}ethanol]",2.43 µM
14,"CNCCNc1cc(N2CCS(=O)(=O)c3ccccc3C2)nc2ccc(Cl)cc12 [Example 9-32, N-[6-Chloro-2-(1,1-dioxido-2,3-dihydro-1,4-benzothiazepin-4(5H)-yl)quinolin-4-yl]-N′-methylethane-1,2-diamine]",0.063 µM
15,"CSc1ccc2nc(N3CCS(=O)(=O)c4ccccc4C3)cc(NCCCN)c2c1 [Example 9-33, N-[2-(1,1-Dioxido-2,3-dihydro-1,4-benzothiazepin-4(5H)-yl)-6-(methylsulfanyl)quinolin-4-yl]propane-1,3-diamine]",0.057 µM
16,"NCCCNc1cc(N2CCS(=O)(=O)c3ccccc3C2)nc2ccc(Br)cc12 [Example 9-34, N-[6-Bromo-2-(1,1-dioxido-2,3-dihydro-1,4-benzothiazepin-4(5H)-yl)quinolin-4-yl]propane-1,3-diamine]",0.024 µM
17,"NCCNc1cc(N2CCS(=O)(=O)c3ccccc3C2)nc2ccc(CO)cc12 [Example 10, {4-[(2-Aminoethyl)amino]-2-(1,1-dioxido-2,3-dihydro-1,4-benzothiazepin-4(5H)-yl)quinolin-6-yl}methanol]",0.003 µM

# Other lines, results leading:
row,EC50,Compound
1,0.069 µM,"Cc1ccc2nc(N3CCS(=O)(=O)c4ccccc4C3)cc(NC(CO)CO)c2c1 [Example 11-1, 2-{[2-(1,1-Dioxido-2,3-dihydro-1,4-benzothiazepin-4(5H)-yl)-6-methylquinolin-4-yl]amino}propane-1,3-diol]"
2,7.02 µM,"Cc1ccc2nc(N3CCS(=O)(=O)c4ccccc4C3)cc(N(CCO)CCO)c2c1 [Example 11-2, 2,2′-{[2-(1,1-Dioxido-2,3-dihydro-1,4-benzothiazepin-4(5H)-yl)-6-methylquinolin-4-yl]imino}diethanol]"
3,0.922 µM,"Cc1ccc2nc(N3CCS(=O)(=O)c4ccccc4C3)cc(NCC(O)CC(=O)O)c2c1 (centres unmarked) [Example 11-3, 4-{[2-(1,1-Dioxido-2,3-dihydro-1,4-benzothiazepin-4(5H)-yl)-6-methylquinolin-4-yl]amino}-3-hydroxybutanoic acid]"
4,0.004 µM,"Cc1ccc2nc(N3CCS(=O)(=O)c4ccccc4C3)cc(NCC(C)(O)CN)c2c1 (centres unmarked) [Example 11-4, 1-Amino-3-{[2-(1,1-dioxido-2,3-dihydro-1,4-benzothiazepin-4(5H)-yl)-6-methylquinolin-4-yl]amino}-2-methylpropan-2-ol]"
5,0.536 µM,"Cc1ccc2nc(N3CCS(=O)(=O)c4ccccc4C3)cc(NCCN3CCOCC3)c2c1 [Example 12-1, 2-(1,1-Dioxido-2,3-dihydro-1,4-benzothiazepin-4(5H)-yl)-6-methyl-N-[2-(morpholin-4-yl)ethyl]quinolin-4-amine]"
6,0.315 µM,"O=S1(=O)CCN(c2cc(NCCO)c3cnccc3n2)Cc2ccccc21 [Example 12-2, 2-{[2-(1,1-Dioxido-2,3-dihydro-1,4-benzothiazepin-4(5H)-yl)-1,6-naphthyridin-4-yl]amino}ethanol]"
7,6.26 µM,"Cc1cccc2c(NCCCCCCCCCN)cc(N3CCS(=O)(=O)c4ccccc4C3)nc12 [Example 12-3, N-[2-(1,1-Dioxido-2,3-dihydro-1,4-benzothiazepin-4(5H)-yl)-8-methylquinolin-4-yl]nonane-1,9-diamine]"
8,0.764 µM,"Cc1cccc2c(NCCCCCCCCCCN)cc(N3CCS(=O)(=O)c4ccccc4C3)nc12 [Example 12-4, N-[2-(1,1-Dioxido-2,3-dihydro-1,4-benzothiazepin-4(5H)-yl)-8-methylquinolin-4-yl]decane-1,10-diamine]"
9,0.448 µM,"Cc1ccc2nc(N3CCS(=O)(=O)c4ccccc4C3)cc(NCCCCCCCCN)c2c1 [Example 12-5, N-[2-(1,1-Dioxido-2,3-dihydro-1,4-benzothiazepin-4(5H)-yl)-6-methylquinolin-4-yl]octane-1,8-diamine]"
